According to US20050209278A1, “Piperidinyl- and piperazinyl-sulfonylmethyl hydroxamic acids and their use as protease inhibitors” (priority 2002, published 2005):
Values joined by “and” are separate entries in the source; they are usually repeats but may differ in a detail not shown here. Equal entries are not always repeated.

Key:
MMP-9 = target: T1, MMP-9 (Homo sapiens, UniProt P14780); assay: In vitro MMP inhibition, Ki determination (fluorogenic substrate II); format: biochemical; conditions: value outside parentheses
T1 construct: made in house; host or cells: MMP-9-transfected HT1080 cells (spent media)
How it was run: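 HT1080-derived MMP-9, activated with APMA, trypsin or MMP-3, incubated 1 hr at room temperature with inhibitor and 4 μM fluorogenic substrate II (at or below Km) in pH 7.5 Tris/NaCl/CaCl2 buffer; ex 330/em 420 nm. Ki from Morrison-equation regression, without substrate correction.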

MMP-14 = target: T2, MMP-14 (Homo sapiens, UniProt P50281); assay: as above; format: biochemical; conditions: value outside parentheses; read-out: MMP-14 Ki
T2 construct: The catalytic domain enzyme was expressed in E. coli inclusion bodies, solubilized in urea; made in house
How it was run: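 Apparent Ki was fitted with Morrison's equation from reaction rates at a single low enzyme level. Enzyme was APMA- or trypsin-activated refolded MMP-14 catalytic domain, buffered at pH 7.5 with 10 mM CaCl2.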

T1 sequence (P14780 107-707 limits assumed): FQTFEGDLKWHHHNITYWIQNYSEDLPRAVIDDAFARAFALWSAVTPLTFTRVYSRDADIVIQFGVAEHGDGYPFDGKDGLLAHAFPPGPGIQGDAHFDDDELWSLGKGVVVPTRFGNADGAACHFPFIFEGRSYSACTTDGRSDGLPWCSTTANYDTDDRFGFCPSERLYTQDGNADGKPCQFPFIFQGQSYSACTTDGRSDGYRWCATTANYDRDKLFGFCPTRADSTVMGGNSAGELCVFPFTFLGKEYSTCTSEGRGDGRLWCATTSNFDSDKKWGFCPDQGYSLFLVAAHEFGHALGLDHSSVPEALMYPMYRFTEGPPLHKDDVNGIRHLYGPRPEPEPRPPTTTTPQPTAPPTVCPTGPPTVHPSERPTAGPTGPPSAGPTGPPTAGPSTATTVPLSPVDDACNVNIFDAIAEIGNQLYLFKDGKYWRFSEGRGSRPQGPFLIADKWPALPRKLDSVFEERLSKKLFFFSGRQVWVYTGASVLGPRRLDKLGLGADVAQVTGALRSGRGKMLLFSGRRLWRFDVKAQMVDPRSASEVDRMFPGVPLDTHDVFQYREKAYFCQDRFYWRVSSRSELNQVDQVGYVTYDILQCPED

Ki (MMP-9) | Ki (MMP-14) | Structure (SMILES)
16.2 nM | 3210 nM | CCCCCc1ccc(-c2cnc(N3CCN(S(=O)(=O)C4(C(=O)NO)CCOCC4)CC3)s2)cc1 [Example 380]
6.38 nM | 84.6 nM | CC(C)(C)c1ccc(-c2cnc(N3CCN(S(=O)(=O)C4(C(=O)NO)CCOCC4)CC3)s2)cc1 [Example 347]
29.4 nM | 1760 nM | O=C(NO)C1(S(=O)(=O)N2CCC(c3ccc(-c4ccc(C(F)(F)F)cc4)cn3)CC2)CCOCC1 [Example 395]
1.38 nM | 2520 nM | O=C(NO)C1(S(=O)(=O)N2CCN(c3ccc(OCC(F)(F)C(F)F)cc3)CC2)CCOCC1 [Example 336]
0.384 nM | 9290 nM | O=C(NO)C1(S(=O)(=O)N2CCN(c3ccc(CCC(F)(F)C(F)(F)F)cc3)CC2)CCN(C2CC2)CC1 [Example 335]
95.7 nM | 2690 nM | O=C(NO)C1(S(=O)(=O)N2CCN(c3ccc(-c4ccc(Cl)c(Cl)c4)cc3)CC2)CCOCC1 [Example 328]
> 10000 nM | > 10000 nM | O=C(NO)C1(S(=O)(=O)N2CCN(c3cnn(-c4ccccc4)c(=O)c3Cl)CC2)CCOCC1 [Example 329]
0.738 nM | 1330 nM | O=C(NO)C1(S(=O)(=O)N2CCC(c3ccc(CCCC(F)(F)F)cn3)CC2)CCOCC1 [Example 338]
2.3 nM | > 10000 nM | CCCCc1ccc(C2CCN(S(=O)(=O)C3(C(=O)NO)CCNCC3)CC2)nc1 [Example 388]
0.829 nM | 2930 nM | O=C(NO)C1(S(=O)(=O)N2CCC(c3ccc(OCC(F)(F)C(F)F)cc3)CC2)CCN(CCN2CCOCC2)CC1 [Example 385]
0.32 nM | 912 nM | CCCCOc1ccc(N2CCN(S(=O)(=O)C3(C(=O)NO)CCN(CCOC)CC3)CC2)nc1 [Example 325]
260 nM | > 10000 nM | COCCN1CCC(C(=O)NO)(S(=O)(=O)N2CCN(c3ncccn3)CC2)CC1 [Example 332]
0.222 nM | 1300 nM | O=C(NO)C1(S(=O)(=O)N2CCC(c3ccc(CCC(F)(F)C(F)(F)F)cn3)CC2)CCOCC1 [Example 340]
2.39 nM | 910 nM | O=C(NO)C1(S(=O)(=O)N2CCN(c3ccc(-c4ccc(F)cc4F)cn3)CC2)CCOCC1 [Example 316]
4.26 nM | 778 nM | O=C(NO)C1(S(=O)(=O)N2CCN(c3ncc(-c4cccnc4)s3)CC2)CCOCC1 [Example 382]
1.7 nM | 13.5 nM | O=C(NO)C1(S(=O)(=O)N2CCN(c3ccc(Br)cn3)CC2)CCOCC1 [Example 331]
> 10000 nM | > 10000 nM | O=C(NO)C1(S(=O)(=O)N2CCN(c3cnn(-c4ccccc4)c(=O)c3)CC2)CCOCC1 [Example 322]
22.7 nM | 343 nM | O=C(NO)C1(S(=O)(=O)N2CCN(c3ncc(-c4ccc(Cl)c(Cl)c4)s3)CC2)CCOCC1 [Example 369]
6.5 nM | 1590 nM | COc1ccc(-c2cnc(N3CCN(S(=O)(=O)C4(C(=O)NO)CCOCC4)CC3)s2)cc1OC [Example 371]
1240 nM | > 10000 nM | O=C(NO)C1(S(=O)(=O)N2CCN(c3ncc(-c4cccc(-c5ccccc5)c4)s3)CC2)CCOCC1 [Example 365]

Ki (MMP-9) | Ki (MMP-14) | Structure (SMILES)
0.86 nM | 2950 nM | O=C(NO)C1(S(=O)(=O)N2CCN(c3ccc(CCCC(F)(F)F)cn3)CC2)CCOCC1 [Example 358]
0.423 nM | 180 nM | O=C(NO)C1(S(=O)(=O)N2CCN(c3ncc(-c4ccc(O)cc4)s3)CC2)CCOCC1 [Example 368]
9520 nM | > 10000 nM | NC(=O)c1ccccc1-c1cnc(N2CCN(S(=O)(=O)C3(C(=O)NO)CCOCC3)CC2)s1 [Example 383]
7.65 nM | 79.7 nM | O=C(NO)C1(S(=O)(=O)N2CCC(COCc3ccccc3)CC2)CCOCC1 [Example 373]
0.492 nM | 75 nM | Cc1ccc(-c2cnc(N3CCN(S(=O)(=O)C4(C(=O)NO)CCOCC4)CC3)s2)cc1 [Example 344]
1.37 nM | 150 nM | O=C(NO)C1(S(=O)(=O)N2CCN(c3ncc(-c4ccc5c(c4)OCO5)s3)CC2)CCOCC1 [Example 362]
3.03 nM | > 10000 nM | O=C(NO)C1(S(=O)(=O)N2CCC(c3ccc(OCC(F)(F)C(F)(F)F)cc3)CC2)CCOCC1 [Example 330]
2.39 nM | 1150 nM | COC(=O)c1ccc(N2CCN(S(=O)(=O)C3(C(=O)NO)CCOCC3)CC2)cc1 [Example 324]
0.489 nM | 34.9 nM | O=C(NO)C1(S(=O)(=O)N2CCN(c3ncc(-c4ccc(Cl)cc4)s3)CC2)CCOCC1 [Example 343]
2.03 nM | 2430 nM | O=C(NO)C1(S(=O)(=O)N2CCN(c3ccc(OCC(F)(F)C(F)F)cc3)CC2)CCOCC1 [Example 326]
105 nM | 2860 nM | O=C(NO)C1(S(=O)(=O)N2CCC(COCC(F)(F)C(F)F)CC2)CCOCC1 [Example 375]
3.97 nM | 283 nM | CCCCc1ccc(-c2cnc(N3CCN(S(=O)(=O)C4(C(=O)NO)CCOCC4)CC3)s2)cc1 [Example 379]
108 nM | > 10000 nM | O=C(NO)C1(S(=O)(=O)N2CCN(c3ccc(OCCCC(F)(F)F)cc3)CC2)CC(O)C1 (stereo not shown) [Example 342]
0.718 nM | 2290 nM | O=C(NO)C1(S(=O)(=O)N2CCC(c3ccc(OCC(F)(F)F)cc3)CC2)CCOCC1 [Example 357]
0.39 nM | 7650 nM | CCCCc1ccc(C2CCN(S(=O)(=O)C3(C(=O)NO)CCN(CC)CC3)CC2)nc1 [Example 396]
184 nM | 3420 nM | CCCCCc1cccc(N2CCN(S(=O)(=O)C3(C(=O)NO)CCOCC3)CC2)c1 [Example 356]
0.546 nM | 2710 nM | O=C(NO)C1(S(=O)(=O)N2CCC(c3ccc(CCCC(F)(F)F)cc3)CC2)CCOCC1 [Example 353]
34.6 nM | 4550 nM | O=C(NO)C1(S(=O)(=O)N2CCN(c3ncc(-c4ccccn4)s3)CC2)CCOCC1 [Example 387]
0.665 nM and 0.75 nM | 462 nM and 470 nM | O=C(NO)C1(S(=O)(=O)N2CCN(c3ccc(-c4ccccc4)cn3)CC2)CCOCC1 [Example 372]
2.44 nM | 50.3 nM | CC(C)c1ccc(-c2cnc(N3CCN(S(=O)(=O)C4(C(=O)NO)CCOCC4)CC3)s2)cc1 [Example 366]

Ki (MMP-9) | Ki (MMP-14) | Structure (SMILES)
53.2 nM | > 10000 nM | O=C(NO)C1(S(=O)(=O)N2CCC(c3ccc(-c4cccnc4)cn3)CC2)CCOCC1 [Example 390]
4960 nM | > 10000 nM | O=C(NO)C1(S(=O)(=O)N2CCC(N3CCN(c4ccc(Cl)cc4)CC3)CC2)CCOCC1 [Example 315]
1.74 nM | 27.8 nM | O=C(NO)C1(S(=O)(=O)N2CCN(c3ncc(-c4ccc([N+](=O)[O-])cc4)s3)CC2)CCOCC1 [Example 363]
1.05 nM | 2360 nM | O=C(NO)C1(S(=O)(=O)N2CCN(c3ccc(OCC4CC4)c(F)c3)CC2)CCOCC1 [Example 333]
1.21 nM | 42.9 nM | O=C(NO)C1(S(=O)(=O)N2CCN(c3ncc(-c4ccc(F)cc4F)s3)CC2)CCOCC1 [Example 359]
4.9 nM | > 10000 nM | O=C(NO)C1(S(=O)(=O)N2CCN(c3ccc(CCCC(F)(F)F)cc3F)CC2)CCOCC1 [Example 386]
9.57 nM | 650 nM | Cc1ccccc1-c1cnc(N2CCN(S(=O)(=O)C3(C(=O)NO)CCOCC3)CC2)s1 [Example 348]
2.33 nM | 1290 nM | O=C(NO)C1(S(=O)(=O)N2CCC(c3ccc(-c4ccccc4)cn3)CC2)CCOCC1 [Example 392]
2.05 nM | 114 nM | O=C(NO)C1(S(=O)(=O)N2CCN(c3ncc(-c4ccc(C(F)(F)F)cc4)s3)CC2)CCOCC1 [Example 346]
1.03 nM | 54.1 nM | CCc1ccc(-c2cnc(N3CCN(S(=O)(=O)C4(C(=O)NO)CCOCC4)CC3)s2)cc1 [Example 381]
638 nM | 3440 nM | O=C(NO)C1(S(=O)(=O)N2CCN(c3cccc(OCCCC(F)(F)F)c3)CC2)CCOCC1 [Example 355]
 | 1290 nM | CCCCc1ccc(C2CCN(S(=O)(=O)C3(C(=O)NO)CCOCC3)CC2)nc1 [Example 323]
0.416 nM | 38.1 nM | O=C(NO)C1(S(=O)(=O)N2CCN(c3ncc(-c4ccc(F)cc4)s3)CC2)CCOCC1 [Example 345]
6610 nM | > 10000 nM | O=C(O)c1ccc(N2CCN(S(=O)(=O)C3(C(=O)NO)CCOCC3)CC2)cc1 [Example 352]
0.802 nM | 69.7 nM | O=C(NO)C1(S(=O)(=O)N2CCN(c3ncc(-c4ccc(OC(F)(F)F)cc4)s3)CC2)CCOCC1 [Example 364]
2.18 nM | 653 nM | O=C(NO)C1(S(=O)(=O)N2CCN(c3ccc(-c4ccccc4F)cn3)CC2)CCOCC1 [Example 317]
114 nM | 3120 nM | O=C(NO)C1(S(=O)(=O)N2CCC(COCC(F)(F)C(F)(F)F)CC2)CCOCC1 [Example 376]
0.625 nM | 3290 nM | O=C(NO)C1(S(=O)(=O)N2CCC(c3ccc(CCC(F)(F)F)cn3)CC2)CCOCC1 [Example 367]
0.431 nM | 4740 nM | O=C(NO)C1(S(=O)(=O)N2CCC(c3ccc(CCCC(F)(F)F)cc3)CC2)CCN(C2CC2)CC1 [Example 351]
219 nM | 195 nM | CCC=C1CCN(S(=O)(=O)C2(C(=O)NO)CCOCC2)CC1 [Example 374]

Structure (SMILES) | Ki (MMP-9) | Ki (MMP-14)
O=C(NO)C1(S(=O)(=O)N2CCC(COCC(F)(F)C(F)(F)C(F)(F)F)CC2)CCOCC1 [Example 377] | 174 nM | > 10000 nM
